Results as given in patent US8501720B2, “Method for treatment of dysmenorrhea” (Bayer Pharma AG, priority 2004, dated 2013).

How the values were obtained:
[1] = in vivo; cited from earlier work
[2] = pharmacokinetics of drospirenone; format: in vivo; settings: i.e. after at most a week
From the text: For example, in the present study, there was, a significant reduction of edema and breast tenderness among long-cycle users in comparison with the women on the conventional 21-day monthly cycle. Thus, in the event of these symptoms being present, a regimen of 42-126 days could be recommended.

[3] = Hershberger test; cited from earlier work

C[C@]12CCC(=O)C=C1[C@@H]1C[C@@H]1[C@H]1[C@@H]3[C@@H]4C[C@@H]4[C@@]4(CCC(=O)O4)[C@@]3(C)CC[C@@H]12 [drospirenone]
half-life [1]: about 27 h | time to steady state [2]: about four | antiandrogenic properties compared with chlormadinone acetate [3]: exceed those of chlormadinone acetate | antiandrogenic properties relative to cyproterone acetate [3]: approximately one-third
